{"source": "the kinase profiling compilation of Christmann-Franck et al. (2016)", "test_in_all_cases": "KINOMEscan competition binding", "settings_in_all_cases": "compound 10.0 µM", "key": {"PKN1 (human)": {"molecular_target": "PKN1 (human) (UniProt Q16512)"}, "CHUK (human)": {"molecular_target": "CHUK (human) (UniProt O15111)"}, "[1]": {"tested_on": "EGFR (human), P00533 [G719C]"}, "KDR (human)": {"molecular_target": "KDR (human) (UniProt P35968)"}, "MAP3K6 (human)": {"molecular_target": "MAP3K6 (human) (UniProt O95382)"}, "CDK19 (human)": {"molecular_target": "CDK19 (human) (UniProt Q9BWU1)"}, "FGFR4 (human)": {"molecular_target": "FGFR4 (human) (UniProt P22455)", "sequence (P22455 whole entry, looked up)": "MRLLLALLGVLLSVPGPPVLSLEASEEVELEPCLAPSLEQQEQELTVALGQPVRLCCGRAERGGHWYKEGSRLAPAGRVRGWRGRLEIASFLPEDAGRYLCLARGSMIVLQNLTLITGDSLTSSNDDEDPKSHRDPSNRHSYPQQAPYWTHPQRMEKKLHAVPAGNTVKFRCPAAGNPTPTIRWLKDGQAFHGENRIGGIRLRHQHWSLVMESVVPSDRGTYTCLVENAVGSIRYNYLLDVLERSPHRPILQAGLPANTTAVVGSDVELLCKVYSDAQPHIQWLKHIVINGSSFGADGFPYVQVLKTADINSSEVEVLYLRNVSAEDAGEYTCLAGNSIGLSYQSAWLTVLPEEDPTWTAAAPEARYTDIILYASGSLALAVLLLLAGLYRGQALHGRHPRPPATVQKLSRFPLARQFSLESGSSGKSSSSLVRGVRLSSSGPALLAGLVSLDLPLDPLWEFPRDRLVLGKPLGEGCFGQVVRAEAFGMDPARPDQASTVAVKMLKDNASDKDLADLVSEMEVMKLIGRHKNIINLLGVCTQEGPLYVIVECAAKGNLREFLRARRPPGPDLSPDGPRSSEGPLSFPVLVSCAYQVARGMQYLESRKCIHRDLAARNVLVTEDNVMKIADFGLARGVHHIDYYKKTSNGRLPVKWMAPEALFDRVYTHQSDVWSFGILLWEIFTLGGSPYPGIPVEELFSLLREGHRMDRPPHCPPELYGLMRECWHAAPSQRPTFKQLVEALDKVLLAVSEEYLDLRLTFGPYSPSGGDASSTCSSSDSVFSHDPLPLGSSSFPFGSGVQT"}, "NTRK3 (human)": {"molecular_target": "NTRK3 (human) (UniProt Q16288)"}, "MAST1 (human)": {"molecular_target": "MAST1 (human) (UniProt Q9Y2H9)"}, "[2]": {"tested_on": "EGFR (human), P00533 [G719S]"}, "AAK1 (human)": {"molecular_target": "AAK1 (human) (UniProt Q2M2I8)"}, "TIE1 (human)": {"molecular_target": "TIE1 (human) (UniProt P35590)"}, "MAPKAPK5 (human)": {"molecular_target": "MAPKAPK5 (human) (UniProt Q8IW41)", "sequence (Q8IW41 whole entry, looked up)": "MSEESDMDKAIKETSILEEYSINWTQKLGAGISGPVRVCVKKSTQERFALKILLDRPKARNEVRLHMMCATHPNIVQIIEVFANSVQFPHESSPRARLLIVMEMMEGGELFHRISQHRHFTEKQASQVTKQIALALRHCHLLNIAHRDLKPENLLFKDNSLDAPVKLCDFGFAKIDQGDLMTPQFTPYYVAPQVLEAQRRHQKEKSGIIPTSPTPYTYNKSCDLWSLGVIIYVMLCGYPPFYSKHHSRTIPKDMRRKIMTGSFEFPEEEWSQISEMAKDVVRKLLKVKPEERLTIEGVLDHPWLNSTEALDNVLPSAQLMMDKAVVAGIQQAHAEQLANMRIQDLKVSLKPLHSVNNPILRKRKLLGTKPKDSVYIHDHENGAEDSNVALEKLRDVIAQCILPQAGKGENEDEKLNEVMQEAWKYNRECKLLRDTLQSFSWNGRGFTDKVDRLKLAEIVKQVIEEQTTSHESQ"}, "MAPK11 (human)": {"molecular_target": "MAPK11 (human) (UniProt Q15759)"}, "TNIK (human)": {"molecular_target": "TNIK (human) (UniProt Q9UKE5)"}, "ACVR2A (human)": {"molecular_target": "ACVR2A (human) (UniProt P27037)", "sequence (P27037 whole entry, looked up)": "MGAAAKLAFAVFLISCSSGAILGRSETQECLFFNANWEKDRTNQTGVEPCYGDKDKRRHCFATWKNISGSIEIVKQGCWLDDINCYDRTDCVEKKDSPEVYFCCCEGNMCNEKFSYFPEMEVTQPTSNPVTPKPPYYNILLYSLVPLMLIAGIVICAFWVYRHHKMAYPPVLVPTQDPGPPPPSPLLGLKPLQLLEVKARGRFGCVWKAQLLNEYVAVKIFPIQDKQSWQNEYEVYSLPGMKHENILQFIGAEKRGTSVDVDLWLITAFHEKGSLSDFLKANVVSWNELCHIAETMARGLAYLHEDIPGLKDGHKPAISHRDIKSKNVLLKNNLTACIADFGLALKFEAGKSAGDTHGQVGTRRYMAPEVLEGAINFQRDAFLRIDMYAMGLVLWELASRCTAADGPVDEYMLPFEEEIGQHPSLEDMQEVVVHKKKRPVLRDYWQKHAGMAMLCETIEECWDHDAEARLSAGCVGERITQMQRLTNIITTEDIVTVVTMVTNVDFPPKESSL"}, "GAK (human)": {"molecular_target": "GAK (human) (UniProt O14976)"}, "EPHB2 (human)": {"molecular_target": "EPHB2 (human) (UniProt P29323)"}, "[3]": {"tested_on": "ABL1 (human), P00519 [M351T]"}, "PIP4K2B (human)": {"molecular_target": "PIP4K2B (human) (UniProt P78356)"}, "PIM2 (human)": {"molecular_target": "PIM2 (human) (UniProt Q9P1W9)", "sequence (Q9P1W9 whole entry, looked up)": "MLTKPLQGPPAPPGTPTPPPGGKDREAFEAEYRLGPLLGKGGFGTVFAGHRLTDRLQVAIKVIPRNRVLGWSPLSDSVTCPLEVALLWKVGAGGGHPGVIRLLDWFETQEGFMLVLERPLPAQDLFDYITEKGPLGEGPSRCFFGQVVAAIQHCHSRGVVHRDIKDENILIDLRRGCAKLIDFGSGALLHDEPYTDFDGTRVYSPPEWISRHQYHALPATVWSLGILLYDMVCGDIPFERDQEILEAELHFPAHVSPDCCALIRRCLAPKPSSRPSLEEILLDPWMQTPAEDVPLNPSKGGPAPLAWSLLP"}, "BLK (human)": {"molecular_target": "BLK (human) (UniProt P51451)"}, "CAMK2D (human)": {"molecular_target": "CAMK2D (human) (UniProt Q13557)", "sequence (Q13557 whole entry, looked up)": "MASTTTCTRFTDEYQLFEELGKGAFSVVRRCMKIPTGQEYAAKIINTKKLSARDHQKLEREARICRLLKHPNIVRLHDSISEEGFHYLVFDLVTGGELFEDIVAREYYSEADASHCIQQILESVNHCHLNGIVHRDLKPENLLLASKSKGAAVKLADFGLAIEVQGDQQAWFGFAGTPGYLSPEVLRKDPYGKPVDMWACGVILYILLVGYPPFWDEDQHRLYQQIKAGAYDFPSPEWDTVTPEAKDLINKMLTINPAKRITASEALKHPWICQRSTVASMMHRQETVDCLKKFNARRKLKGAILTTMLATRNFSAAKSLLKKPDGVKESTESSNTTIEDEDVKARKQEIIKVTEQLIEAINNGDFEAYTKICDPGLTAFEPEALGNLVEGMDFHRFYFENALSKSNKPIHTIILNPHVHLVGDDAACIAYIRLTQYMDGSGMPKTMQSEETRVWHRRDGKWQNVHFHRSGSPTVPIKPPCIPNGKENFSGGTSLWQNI"}, "EPHA6 (human)": {"molecular_target": "EPHA6 (human) (UniProt Q9UF33)"}, "MAPKAPK2 (human)": {"molecular_target": "MAPKAPK2 (human) (UniProt P49137)", "sequence (P49137 whole entry, looked up)": "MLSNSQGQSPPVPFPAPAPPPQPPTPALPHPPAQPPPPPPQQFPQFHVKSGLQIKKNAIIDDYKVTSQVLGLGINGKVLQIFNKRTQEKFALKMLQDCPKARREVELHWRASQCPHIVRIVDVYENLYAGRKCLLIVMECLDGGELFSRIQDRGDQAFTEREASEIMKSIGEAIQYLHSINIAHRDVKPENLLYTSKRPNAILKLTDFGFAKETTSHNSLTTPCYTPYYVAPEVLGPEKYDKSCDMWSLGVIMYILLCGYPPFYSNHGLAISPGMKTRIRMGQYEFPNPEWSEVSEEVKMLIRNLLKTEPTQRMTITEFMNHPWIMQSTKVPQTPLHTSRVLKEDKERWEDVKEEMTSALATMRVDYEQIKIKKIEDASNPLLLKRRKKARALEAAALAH"}, "PIP5K1A (human)": {"molecular_target": "PIP5K1A (human) (UniProt Q99755)"}, "MYO3B (human)": {"molecular_target": "MYO3B (human) (UniProt Q8WXR4)", "sequence (Q8WXR4 whole entry, looked up)": "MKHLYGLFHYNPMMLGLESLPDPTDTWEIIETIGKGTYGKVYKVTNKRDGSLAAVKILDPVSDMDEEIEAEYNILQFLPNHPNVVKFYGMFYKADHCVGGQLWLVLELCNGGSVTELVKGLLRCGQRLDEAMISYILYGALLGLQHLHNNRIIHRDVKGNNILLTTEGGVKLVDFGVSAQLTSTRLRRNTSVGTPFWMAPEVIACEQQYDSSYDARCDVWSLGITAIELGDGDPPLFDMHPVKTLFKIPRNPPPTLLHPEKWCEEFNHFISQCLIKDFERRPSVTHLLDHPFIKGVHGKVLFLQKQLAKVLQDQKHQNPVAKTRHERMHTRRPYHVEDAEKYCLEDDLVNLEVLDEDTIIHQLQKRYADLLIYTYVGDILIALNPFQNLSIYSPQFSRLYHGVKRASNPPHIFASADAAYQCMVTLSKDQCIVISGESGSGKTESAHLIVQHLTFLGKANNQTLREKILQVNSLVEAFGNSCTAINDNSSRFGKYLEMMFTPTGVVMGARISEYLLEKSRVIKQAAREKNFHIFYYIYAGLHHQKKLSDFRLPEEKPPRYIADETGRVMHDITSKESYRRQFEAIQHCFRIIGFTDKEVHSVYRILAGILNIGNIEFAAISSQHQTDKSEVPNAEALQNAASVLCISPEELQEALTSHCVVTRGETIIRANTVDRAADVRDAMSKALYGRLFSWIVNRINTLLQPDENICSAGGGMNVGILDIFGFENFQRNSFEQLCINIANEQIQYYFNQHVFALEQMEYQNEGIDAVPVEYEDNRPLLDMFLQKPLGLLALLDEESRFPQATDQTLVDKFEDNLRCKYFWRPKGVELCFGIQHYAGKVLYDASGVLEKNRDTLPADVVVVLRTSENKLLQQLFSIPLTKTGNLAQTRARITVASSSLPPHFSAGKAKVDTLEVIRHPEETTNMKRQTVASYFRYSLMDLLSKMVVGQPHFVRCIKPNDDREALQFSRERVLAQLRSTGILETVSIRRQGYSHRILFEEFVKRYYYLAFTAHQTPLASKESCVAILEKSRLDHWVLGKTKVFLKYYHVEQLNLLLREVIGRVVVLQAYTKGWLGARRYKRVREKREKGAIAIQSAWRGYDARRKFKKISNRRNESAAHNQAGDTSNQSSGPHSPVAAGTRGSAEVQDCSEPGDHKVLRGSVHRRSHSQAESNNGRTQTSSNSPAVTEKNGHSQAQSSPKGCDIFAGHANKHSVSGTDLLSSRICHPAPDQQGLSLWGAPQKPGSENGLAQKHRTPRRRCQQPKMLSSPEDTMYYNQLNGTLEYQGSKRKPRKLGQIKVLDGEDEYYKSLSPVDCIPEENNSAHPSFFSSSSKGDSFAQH"}, "RAF1 (human)": {"molecular_target": "RAF1 (human) (UniProt P04049)"}, "DCLK3 (human)": {"molecular_target": "DCLK3 (human) (UniProt Q9C098)"}, "PRKCE (human)": {"molecular_target": "PRKCE (human) (UniProt Q02156)"}, "[4]": {"tested_on": "BRAF (human), P15056 [V600E]"}, "CDC2L2 (human)": {"molecular_target": "CDC2L2 (human) (UniProt Q9UQ88)"}, "LIMK2 (human)": {"molecular_target": "LIMK2 (human) (UniProt P53671)"}, "MUSK (human)": {"molecular_target": "MUSK (human) (UniProt O15146)"}, "PDGFRA (human)": {"molecular_target": "PDGFRA (human) (UniProt P16234)"}, "RPS6KA6 KD1 (human)": {"molecular_target": "RPS6KA6 KD1 (human) (UniProt Q9UK32)"}, "ITK (human)": {"molecular_target": "ITK (human) (UniProt Q08881)"}, "BRSK2 (human)": {"molecular_target": "BRSK2 (human) (UniProt Q8IWQ3)"}, "FRK (human)": {"molecular_target": "FRK (human) (UniProt P42685)", "sequence (P42685 whole entry, looked up)": "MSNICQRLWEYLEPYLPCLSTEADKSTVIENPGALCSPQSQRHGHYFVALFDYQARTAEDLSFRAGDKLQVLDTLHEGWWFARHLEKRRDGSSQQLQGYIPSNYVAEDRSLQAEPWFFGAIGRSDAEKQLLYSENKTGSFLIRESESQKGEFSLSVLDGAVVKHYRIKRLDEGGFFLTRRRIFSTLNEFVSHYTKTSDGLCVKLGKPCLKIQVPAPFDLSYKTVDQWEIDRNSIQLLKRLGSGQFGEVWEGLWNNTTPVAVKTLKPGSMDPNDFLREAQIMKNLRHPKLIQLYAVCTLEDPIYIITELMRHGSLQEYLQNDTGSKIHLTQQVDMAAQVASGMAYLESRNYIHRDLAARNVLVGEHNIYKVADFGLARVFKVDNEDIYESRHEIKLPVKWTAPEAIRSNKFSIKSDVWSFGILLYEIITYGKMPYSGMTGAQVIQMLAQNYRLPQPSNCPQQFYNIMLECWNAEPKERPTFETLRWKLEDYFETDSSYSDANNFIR"}, "CSNK1D (human)": {"molecular_target": "CSNK1D (human) (UniProt P48730)"}, "PRKACA (human)": {"molecular_target": "PRKACA (human) (UniProt P17612)"}}}
{"smiles": "COc1cc(C(=O)N2CCC(N3CCN(C)CC3)CC2)ccc1Nc1ncc2c(n1)N(C)c1ccccc1C(=O)N2C", "values": [{"measurement": "kinase still bound, per cent of control", "setting": "PKN1 (human)", "result": 100, "unit": "%"}, {"measurement": "kinase still bound, per cent of control", "setting": "CHUK (human)", "result": 100, "unit": "%"}, {"measurement": "kinase still bound, per cent of control", "setting": "[1]", "result": 100, "unit": "%"}, {"measurement": "kinase still bound, per cent of control", "setting": "KDR (human)", "result": 84, "unit": "%"}, {"measurement": "kinase still bound, per cent of control", "setting": "MAP3K6 (human)", "result": 100, "unit": "%"}, {"measurement": "residual activity", "setting": "CDK19 (human)", "result": 100, "unit": "%"}, {"measurement": "kinase still bound, per cent of control", "setting": "FGFR4 (human)", "result": 28, "unit": "%"}, {"measurement": "kinase still bound, per cent of control", "setting": "NTRK3 (human)", "result": 100, "unit": "%"}, {"measurement": "kinase still bound, per cent of control", "setting": "MAST1 (human)", "result": 100, "unit": "%"}, {"measurement": "kinase still bound, per cent of control", "setting": "[2]", "result": 86, "unit": "%"}, {"measurement": "kinase still bound, per cent of control", "setting": "AAK1 (human)", "result": 84, "unit": "%"}, {"measurement": "kinase still bound, per cent of control", "setting": "TIE1 (human)", "result": 100, "unit": "%"}, {"measurement": "kinase still bound, per cent of control", "setting": "MAPKAPK5 (human)", "result": 97, "unit": "%"}, {"measurement": "kinase still bound, per cent of control", "setting": "MAPK11 (human)", "result": 60, "unit": "%"}, {"measurement": "kinase still bound, per cent of control", "setting": "TNIK (human)", "result": 100, "unit": "%"}, {"measurement": "kinase still bound, per cent of control", "setting": "ACVR2A (human)", "result": 100, "unit": "%"}, {"measurement": "kinase still bound, per cent of control", "setting": "GAK (human)", "result": 16, "unit": "%"}, {"measurement": "kinase still bound, per cent of control", "setting": "EPHB2 (human)", "result": 100, "unit": "%"}, {"measurement": "kinase still bound, per cent of control", "setting": "[3]", "result": 94, "unit": "%"}, {"measurement": "kinase still bound, per cent of control", "setting": "PIP4K2B (human)", "result": 100, "unit": "%"}, {"measurement": "kinase still bound, per cent of control", "setting": "PIM2 (human)", "result": 100, "unit": "%"}, {"measurement": "kinase still bound, per cent of control", "setting": "BLK (human)", "result": 97, "unit": "%"}, {"measurement": "kinase still bound, per cent of control", "setting": "CAMK2D (human)", "result": 28, "unit": "%"}, {"measurement": "kinase still bound, per cent of control", "setting": "EPHA6 (human)", "result": 89, "unit": "%"}, {"measurement": "kinase still bound, per cent of control", "setting": "MAPKAPK2 (human)", "result": 100, "unit": "%"}, {"measurement": "kinase still bound, per cent of control", "setting": "PIP5K1A (human)", "result": 90, "unit": "%"}, {"measurement": "kinase still bound, per cent of control", "setting": "MYO3B (human)", "result": 83, "unit": "%"}, {"measurement": "kinase still bound, per cent of control", "setting": "RAF1 (human)", "result": 100, "unit": "%"}, {"measurement": "kinase still bound, per cent of control", "setting": "DCLK3 (human)", "result": 90, "unit": "%"}, {"measurement": "kinase still bound, per cent of control", "setting": "PRKCE (human)", "result": 100, "unit": "%"}, {"measurement": "kinase still bound, per cent of control", "setting": "[4]", "result": 100, "unit": "%"}, {"measurement": "residual activity", "setting": "CDC2L2 (human)", "result": 82, "unit": "%"}, {"measurement": "kinase still bound, per cent of control", "setting": "LIMK2 (human)", "result": 100, "unit": "%"}, {"measurement": "kinase still bound, per cent of control", "setting": "MUSK (human)", "result": 99, "unit": "%"}, {"measurement": "kinase still bound, per cent of control", "setting": "PDGFRA (human)", "result": 100, "unit": "%"}, {"measurement": "kinase still bound, per cent of control", "setting": "RPS6KA6 KD1 (human)", "result": 92, "unit": "%"}, {"measurement": "kinase still bound, per cent of control", "setting": "ITK (human)", "result": 82, "unit": "%"}, {"measurement": "kinase still bound, per cent of control", "setting": "BRSK2 (human)", "result": 64, "unit": "%"}, {"measurement": "kinase still bound, per cent of control", "setting": "FRK (human)", "result": 34, "unit": "%"}, {"measurement": "residual activity", "setting": "CSNK1D (human)", "result": 81, "unit": "%"}, {"measurement": "residual activity", "setting": "PRKACA (human)", "result": 100, "unit": "%"}]}
